Experimental findings from patent publication US20250051327A1, “MALT-1 MODULATORS” (EXSCIENTIA AI LIMITED, priority 2020, published 2025) are described below.

One may read the IC50 as the concentration needed to halve the response being measured.

Each structure is given as a SMILES string.

Assay [1] relates to IL-2 secretion by human effector memory T cells (TEM). The assay is described as follows: Effector memory T cells IL-2 release assay. Format: cell-based. The note with it: T-cell; human CD4+ effector memory T cells, CD3/CD28 bead stimulation, 24 h; read-out: CD4TC IL2 IC50. The method, boiled down: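 Human CD4+ effector memory T cells from healthy-donor buffy coats were stimulated with anti-CD3/CD28 Dynabeads and exposed to 10 semi-log compound doses (0.1% DMSO) for 24 h at 37 °C. Supernatant IL-2 was measured by HTRF, and IC50 came from a 4-parameter logistic fit to maximal IL-2. Viability was checked by flow cytometry.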

The target in assay [2] is Recombinant human MALT-1 (amino acids 340-824) (Homo sapiens (Human), UniProt Q9UDY8). The assay is described as follows: MALT-1 inhibition assay (fluorogenic substrate Ac-LRSR-Rh110-DP). Particulars: recombinant human MALT-1, substrate Ac-LRSR-Rh110-DP. Format: biochemical. The method, boiled down:
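Reactions were started with fluorogenic substrate Ac-LRSR-Rh110-DP (10 μM final) against 3 nM enzyme and kept dark at 25° C for 60 minutes. IC50 values came from 4-parameter logistic fits of percent inhibition calculated from relative fluorescence units.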

Recombinant human MALT-1 (amino acids 340-824), sequence (Q9UDY8 340-824): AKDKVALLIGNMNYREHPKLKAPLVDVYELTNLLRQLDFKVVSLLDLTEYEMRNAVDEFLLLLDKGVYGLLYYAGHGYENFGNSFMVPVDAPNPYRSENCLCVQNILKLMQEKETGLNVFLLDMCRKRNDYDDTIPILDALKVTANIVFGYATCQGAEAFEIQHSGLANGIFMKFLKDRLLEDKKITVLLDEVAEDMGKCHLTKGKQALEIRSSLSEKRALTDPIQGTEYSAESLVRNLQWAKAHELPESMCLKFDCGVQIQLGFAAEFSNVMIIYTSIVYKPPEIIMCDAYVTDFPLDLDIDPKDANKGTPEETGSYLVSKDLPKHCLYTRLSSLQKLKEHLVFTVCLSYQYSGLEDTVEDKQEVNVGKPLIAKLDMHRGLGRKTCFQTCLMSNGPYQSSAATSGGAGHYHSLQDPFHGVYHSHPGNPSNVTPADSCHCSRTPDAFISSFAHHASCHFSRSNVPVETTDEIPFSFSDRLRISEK

`CN(C(=O)CO)[C@@H](c1ccc(N2CCCc3c2cnc2cc(Cl)nn32)cc1)C(F)(F)F` [CPD0019341, N-[(1S)-1-[4-(4-chloro-2,3,7,10-tetrazatricyclo[7.4.0.0^2,6]trideca-1(9),3,5,7-tetraen-10-yl)phenyl]-2,2,2-trifluoro-ethyl]-2-hydroxy-N-methyl-acetamide]: the IC50 in assay [1] was found to be 104 nM; in assay [2], 200 nM.

For `CC(=O)N1CC[C@@H](C(=O)N(C)[C@@H](c2ccc(N3CCCc4c3cnc3cc(Cl)nn43)cc2)C(F)(F)F)C1` (relative stereo) [CPD0073188, (3rel-R)-1-acetyl-N-[(1S)-1-(4-{4-chloro-2,3,7,10-tetraazatricyclo[7.4.0.0^2,6]trideca-1(9),3,5,7-tetraen-10-yl}phenyl)-2,2,2-trifluoroethyl]-N-methylpyrrolidine-3-carboxamide], the IC50 in assay [1] stood at 235 nM; in assay [2], 113 nM.

As to `CN(C(=O)C[C@H]1CCS(=O)(=O)C1)[C@@H](c1ccc(N2CCCc3c2cnc2cc(Cl)nn32)cc1)C(F)(F)F` (relative stereo) [CPD0072799, N-[(1S)-1-(4-{4-chloro-2,3,7,10-tetraazatricyclo[7.4.0.0^2,6]trideca-1(9),3,5,7-tetraen-10-yl}phenyl)-2,2,2-trifluoroethyl]-2-[(3rel-S)-1,1-dioxo-1λ^6-thiolan-3-yl]-N-methylacetamide], the IC50 in assay [1] stood at 178 nM; in assay [2] it was 88 nM.

`COc1ccc2ncc(Nc3ccc([C@@H](N(C)C(=O)[C@H]4CC[S@](=N)(=O)CC4)C(F)(F)F)cc3)c([C@H](C)OC)c2n1` (relative stereo) [CPD0077187, (1 rel-s,4rel-s)-1-imino-N-methyl-1-oxo-N-[(1R)-2,2,2-trifluoro-1-[4-({6-methoxy-4-[(1 rel-S)-1-methoxyethyl]-1,5-naphthyridin-3-yl}amino)phenyl]ethyl]-1λ^6-thiane-4-carboxamide]: the IC50 came to 209 nM in assay [1] and 117 nM in assay [2].

Consider `CN(C(=O)[C@H]1C[C@@H](C(=O)O)C1)[C@@H](c1ccc(N2CCCc3c2cnc2cc(Cl)nn32)cc1)C(F)(F)F` [CPD0072934, (cis)-3-{[(1S)-1-(4-{4-chloro-2,3,7,10-tetraazatricyclo[7.4.0.0^2,6]trideca-1(9),3,5,7-tetraen-10-yl}phenyl)-2,2,2-trifluoroethyl](methyl)carbamoyl}cyclobutane-1-carboxylic acid], for which the IC50 in assay [1] came out at 422 nM; in assay [2], 72 nM.

Turning to `CN(C(=O)C1CN(S(C)(=O)=O)C1)[C@@H](c1ccc(N2CCCc3c2cnc2cc(Cl)nn32)cc1)C(F)(F)F` [CPD0073238, N-[(1S)-1-(4-{4-chloro-2,3,7,10-tetraazatricyclo[7.4.0.0^2,6]trideca-1(9),3,5,7-tetraen-10-yl}phenyl)-2,2,2-trifluoroethyl]-1-methanesulfonyl-N-methylazetidine-3-carboxamide], the IC50 in assay [1] was found to be 174 nM; in assay [2], 87 nM.

On to `CN(C(=O)CN1CCNCC1)[C@@H](c1ccc(N2CCCc3c2cnc2cc(Cl)nn32)cc1)C(F)(F)F` [CPD0021745, N-[(1S)-1-(4-{4-chloro-2,3,7,10-tetraazatricyclo[7.4.0.0^2,6]trideca-1(9),3,5,7-tetraen-10-yl}phenyl)-2,2,2-trifluoroethyl]-N-methyl-2-(piperazin-1-yl)acetamide], for which the half-maximal inhibitory concentration (IC50) in assay [1] came to 748 nM; in assay [2] it was 368 nM.

`COC[C@@]1(C)CCN(c2ccc([C@H](N(C)C(=O)[C@H]3CC[S@+]([O-])CC3)C(F)(F)F)cc2)c2cnc3cc(Cl)nn3c21` (relative stereo) [CPD0073138, (1rel-r,4 rel-r)-N-[(1S)-1-[4-[(13 rel-S)-4-chloro-13-(methoxymethyl)-13-methyl-2,3,7,10-tetrazatricyclo[7.4.0.0^2,6]trideca-1(9),3,5,7-tetraen-10-yl]phenyl]-2,2,2-trifluoro-ethyl]-N-methyl-1-oxo-1λ^4-thiane-4-carboxamide]: the values for the IC50 in assay [1] and in assay [2] were 55 nM and 79 nM, respectively.

On to `CN(C(=O)[C@H]1CC[S@@+]([O-])CC1)[C@@H](c1ccc(N2CCC3(CC3)c3c2cnc2cc(F)nn32)cc1)C(F)(F)F` (relative stereo) [CPD0072932, (1rel-s,4rel-s)-N-methyl-1-oxo-N-[(1S)-2,2,2-trifluoro-1-(4-{4′-fluoro-2′,3′,7′,10′-tetraazaspiro[cyclopropane-1,13′-tricyclo[7.4.0.0^2,6]tridecane]-1′(9′),3′,5′,7′-tetraen-10′-yl}phenyl)ethyl]-1λ^4-thiane-4-carboxamide], for which the IC50 in assay [1] turned out to be 56 nM; in assay [2], 49 nM.

Take `COc1ccc2ncc(Nc3ccc([C@H](N(C)C(=O)[C@H]4CC[S@](=N)(=O)CC4)C(F)(F)F)cc3)c([C@@H](C)OC)c2n1` [CPD0075563]: the IC50 in assay [1] came out at 257 nM; in assay [2], 102 nM.

Consider `COC(C)c1c(Nc2ccc([C@H](N(C)C(=O)C3CCS(=O)(=O)CC3)C(F)(F)F)cn2)cnc2ccc(Cl)nc12` (stereo partly drawn) [CPD0019499, N-[(1S)-1-(6-{[6-chloro-4-(1-methoxyethyl)-1,5-naphthyridin-3-yl]amino}pyridin-3-yl)-2,2,2-trifluoroethyl]-N-methyl-1,1-dioxo-1λ^6-thiane-4-carboxamide], for which the IC50 stood at 190 nM in assay [1] and 80 nM in assay [2].

For `CN(C(=O)[C@H]1CNC(=O)C1)[C@@H](c1ccc(N2CCCc3c2cnc2cc(Cl)nn32)cc1)C(F)(F)F` (stereo in doubt) [CPD0073564, (3rel-R)—N-[(1S)-1-(4-{4-chloro-2,3,7,10-tetraazatricyclo[7.4.0.0^2,6]trideca-1(9),3,5,7-tetraen-10-v}phenyl)-2,2,2-trifluoroethyl]-N-methyl-5-oxopyrrolidine-3-carboxamide], the IC50 in assay [1] was 250 nM; in assay [2], 53 nM.

Consider `CN=[S@]1(=O)CC[C@@H](C(=O)N(C)[C@@H](c2ccc(N3CCCc4c3cnc3cc(Cl)nn43)cc2)C(F)(F)F)CC1` (relative stereo) [CPD0072530, (1rel-S,4rel-S)—N-[(1S)-1-(4-{4-chloro-2,3,7,10-tetraazatricyclo[7.4.0.0^2,6]trideca-1(9),3,5,7-tetraen-10-yl}phenyl)-2,2,2-trifluoroethyl]-N-methyl-1-(methylimino)-1-oxo-1λ^e-thiane-4-carboxamide], for which the IC50 in assay [1] turned out to be 127 nM; in assay [2], 59 nM.

On to `CN1C[C@@H](C(=O)N(C)[C@@H](c2ccc(N3CCCc4c3cnc3cc(Cl)nn43)cc2)C(F)(F)F)CC1=O` (relative stereo) [CPD0073557, (3rel-S)-N-[(1S)-1-(4-{4-chloro-2,3,7,10-tetraazatricyclo[7.4.0.0^2,6]trideca-1(9),3,5,7-tetraen-10-yl}phenyl)-2,2,2-trifluoroethyl]-N,1-dimethyl-5-oxopyrrolidine-3-carboxamide], for which the IC50 in assay [1] was 282 nM; in assay [2], 121 nM.

For the compound `CN([C@@H](c1ccc(N2CCCc3c2cnc2cc(Cl)nn32)cc1)C(F)(F)F)[S+]([O-])C(C)(C)C` (stereo partly drawn) [CPD0021661], the results for the IC50 in assay [1] and in assay [2] were 1470 nM and 302 nM, respectively.

On to `CN(C(=O)C1CC2(C1)CS(=O)(=O)C2)[C@@H](c1ccc(N2CCCc3c2cnc2cc(Cl)nn32)cc1)C(F)(F)F` [CPD0072937, N-[(1S)-1-(4-{4-chloro-2,3,7,10-tetraazatricyclo[7.4.0.0^2,6]trideca-1(9),3,5,7-tetraen-10-yl}phenyl)-2,2,2-trifluoroethyl]-N-methyl-2,2-dioxo-2λ^6-thiaspiro[3.3]heptane-6-carboxamide], for which the results for the IC50 in assay [1] and in assay [2] were 93 nM and 75 nM, respectively.

`CC(=O)N1CC[C@H](C(=O)N(C)[C@@H](c2ccc(N3CCCc4c3cnc3cc(Cl)nn43)cc2)C(F)(F)F)C1` (relative stereo) [CPD0073189, (3rel-S)-1-acetyl-N-[(1S)-1-(4-{4-chloro-2,3,7,10-tetraazatricyclo[7.4.0.0^2,6]trideca-1(9),3,5,7-tetraen-10-yl}phenyl)-2,2,2-trifluoroethyl]-N-methylpyrrolidine-3-carboxamide]: the IC50 stood at 160 nM in assay [1] and 76 nM in assay [2].

Take `COC[C@@]1(C)CCN(c2ccc([C@H](N(C)C(=O)[C@H]3CC[S@@+]([O-])CC3)C(F)(F)F)cc2)c2cnc3cc(Cl)nn3c21` (relative stereo) [CPD0073137, (1rel-s,4rel-s)-N-[(1S)-1-[4-[(13rel-S)-4-chloro-13-(methoxymethyl)-13-methyl-2,3,7,10-tetrazatricyclo[7.4.0.0^2,6]trideca-1(9),3,5,7-tetraen-10-yl]phenyl]-2,2,2-trifluoro-ethyl]-N-methyl-1-oxo-1λ^4-thiane-4-carboxamide]: the results for the IC50 in assay [1] and in assay [2] were 45 nM and 90 nM, respectively.

As to `CN(C(=O)CC#N)[C@@H](c1ccc(N2CCCc3c2cnc2cc(Cl)nn32)cc1)C(F)(F)F` [CPD0019342, N-[(1S)-1-(4-{4-chloro-2,3,7,10-tetraazatricyclo[7.4.0.0^2,6]trideca-1(9),3,5,7-tetraen-10-yl}phenyl)-2,2,2-trifluoroethyl]-2-cyano-N-methylacetamide], the figures for the IC50 in assay [1] and in assay [2] were 96 nM and 170 nM, respectively.

Take `CO[C@@H](C)c1c(Nc2ccc(C(N(C)C(=O)C3CCS(=O)(=O)CC3)C(F)(F)F)cc2)cnn2cc(Cl)nc12` (stereo partly drawn) [CPD0072849]: the IC50 in assay [1] is 55 nM; in assay [2], 37 nM.

On to `CN1CCN(CC(=O)N(C)[C@@H](c2ccc(N3CCCc4c3cnc3cc(Cl)nn43)cc2)C(F)(F)F)CC1` [CPD0021746, N-[(1S)-1-(4-{4-chloro-2,3,7,10-tetraazatricyclo[7.4.0.0^2,6]trideca-1(9),3,5,7-tetraen-10-yl}phenyl)-2,2,2-trifluoroethyl]-N-methyl-2-(4-methylpiperazin-1-yl)acetamide], for which the IC50 in assay [1] came out at 466 nM; in assay [2], 522 nM.
